Assay results from US8293729B2 (Boehringer Ingelheim International GmbH, priority 2009, dated 2012).
pEC50: −log10 of the molar value.

Target: T1, human GPR119 receptor (Homo sapiens, UniProt Q8TDV5, S329A/T327A)
T1 construct: N-terminal leader […]; expressed in transfected cells
T1 sequence (Q8TDV5 with tags, fused parts or gaps T327A/S329A): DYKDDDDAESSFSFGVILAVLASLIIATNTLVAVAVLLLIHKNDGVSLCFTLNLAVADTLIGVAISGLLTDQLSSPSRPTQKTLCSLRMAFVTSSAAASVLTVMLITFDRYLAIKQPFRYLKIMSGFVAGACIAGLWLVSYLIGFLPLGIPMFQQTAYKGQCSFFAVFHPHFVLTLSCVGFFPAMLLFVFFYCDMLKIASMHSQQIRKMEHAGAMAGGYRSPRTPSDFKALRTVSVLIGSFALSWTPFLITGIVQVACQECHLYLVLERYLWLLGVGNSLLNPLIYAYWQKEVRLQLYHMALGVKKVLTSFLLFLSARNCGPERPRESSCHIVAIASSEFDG
Assay: cAMP assay (LANCE cAMP-384) in HEK293 cells stably expressing mutant human GPR119 receptor
Assay type: cell-based
Conditions: HEK293, 20 min; 10 μM; the 30th table; read-out: stimulation in % at 10 μM
Summary of the method: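 Agonist EC50 came from nonlinear regression over 12 concentrations (30 μM–100 pM), with % stimulation at 10 μM where no EC50 was obtained. Cells: stable HEK293 with mutant human GPR119 (T327A/S329A), 20 min compound at 37° C; cAMP read by LANCE kit with standard curve.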

SMILES	activation at 10 µM [%]
CC(C)OC(=O)N1CCC(ON=C2CCN(c3ncc(CN4CCCC4=O)cc3F)CC2)CC1 [Example 54-4]	93

Same assay, conditions: HEK293, 20 min; single concentration 10 μM; given where no EC50 value could be determined; read-out: % stimulation at 10 μM

SMILES	activation at 10 µM [%]
CC(C)OC(=O)N1CCC(ON=C2CCN(c3cc(F)c(-c4nnn[nH]4)cc3F)CC2)CC1 [Example 27-28]	86
CC(C)OC(=O)N1CCC(ON=C2CCN(c3cc(Br)ccn3)CC2)CC1 [Example 2-67]	54
CC(C)OC(=O)N1CCC(ON=C2CCN(c3cc(F)c(CN4CCOCC4)cc3F)CC2)CC1 [Example 5-4]	69

Same assay, conditions: cAMP accumulation, HEK293 cells stably expressing mutant human GPR119; read-out: EC50

SMILES	pEC50
CC(C)OC(=O)N1CCC(ON=C2CCN(c3cc(F)c(CS(=O)(=O)C4CC4)cc3F)CC2)CC1 [Example 14-3]	7.72
CC(C)OC(=O)N1CCC(ON=C2CCN(c3cc(F)ccc3F)CC2)CC1 [Example 32-2]	5.54
CC(C)OC(=O)N1CCC(ON=C2CCN(c3cc(F)c(S(C)(=O)=O)cc3F)CC2)CC1 [Example 2-60]	7.55
CC(C)OC(=O)N1CCC(ON=C2CCN(c3ccc(S(C)(=O)=O)cc3F)CC2)CC1 [Example 2-1, 4-[1-(2-Fluoro-4-methanesulfonyl-phenyl)-piperidin-4-ylideneaminooxy]-piperidine-1-carboxylic acid isopropyl ester]	7.33
CC(C)OC(=O)N1CCC(ON=C2CCN(c3cc(F)c(Cn4ccnc4)cc3F)CC2)CC1 [Example 14-4]	6.57
CCS(=O)(=O)NCc1cc(F)c(N2CCC(=NOC3CCN(C(=O)OC(C)C)CC3)CC2)cc1F [Example 16-6]	6.95
CC(=O)OCc1cc(F)c(N2CCC(=NOC3CCN(C(=O)OC(C)C)CC3)CC2)cc1F [Example 11-1, 4-[1-(4-acetoxymethyl-2,5-difluoro-phenyl)-piperidin-4-ylideneaminooxy]-piperidine-1-carboxylic acid isopropyl ester]	7.17
CNCCNC(=O)c1cc(F)c(N2CCC(=NOC3CCN(C(=O)OC(C)C)CC3)CC2)cc1F [Example 31-1, 4-{1-[2,5-Difluoro-4-(2-methylamino-ethylcarbamoyl)-phenyl]-piperidin-4-ylideneaminooxy}-piperidine-1-carboxylic acid isopropyl ester]	6.37
CC(C)OC(=O)N1CCC(ON=C2CCN(c3nc(Cl)ccc3CO)CC2)CC1 [Example 2-27]	< 5.00
CC(C)OC(=O)N1CCC(ON=C2CCN(c3cc(F)c(-c4cscn4)cc3F)CC2)CC1 [Example 27-19]	5.51
CC(C)OC(=O)N1CCC(ON=C2CCN(c3cc(F)c(-c4cnco4)cc3F)CC2)CC1 [Example 20-1, 4-[1-(2,5-Difluoro-4-oxazol-5-yl-phenyl)-piperidin-4-ylideneaminooxy]-piperidine-1-carboxylic acid isopropyl ester]	7.00
CC(C)OC(=O)N1CCC(ON=C2CCN(c3cc(F)c(CNS(N)(=O)=O)cc3F)CC2)CC1 [Example 17-1]	6.51
CC(C)OC(=O)N1CCC(ON=C2CCN(c3cc(F)c(Cn4cnc5ncccc54)cc3F)CC2)CC1 [Example 14-5]	6.43

Same assay, conditions: the 15th table; read-out: EC50

SMILES	pEC50
CC(C)OC(=O)N1CCC(ON=C2CCN(c3cc(F)c(C(=O)NCCN)cc3F)CC2)CC1 [Example 29-6]	6.42
CC(C)OC(=O)N1CCC(ON=C2CCN(c3cc(F)c(C(=O)N4CCCC[C@H]4CN4CCCC4)cc3F)CC2)CC1 [Example 29-31]	6.65
COCCCNC(=O)c1cc(F)c(N2CCC(=NOC3CCN(C(=O)OC(C)C)CC3)CC2)cc1F [Example 29-10]	7.55
CC(C)OC(=O)N1CCC(ON=C2CCN(c3cc(F)c(C(=O)N4CCC[C@@H]4CN)cc3F)CC2)CC1 [Example 29-50]	6.88

Same assay, conditions: the 19th table; unit inferred; read-out: EC 50

SMILES	pEC50
CCc1cnc(N2CCC(ON=C3CCN(c4cc(F)c(C(=O)N5CC[C@H](CN)C5)cc4F)CC3)CC2)nc1 [Example 29-120]	6.69
CCc1cnc(N2CCC(ON=C3CCN(c4cc(F)c(C(=O)NCC5CCNC5)cc4F)CC3)CC2)nc1 (stereo not shown) [Example 29-90]	7.17
CCc1cnc(N2CCC(ON=C3CCN(c4cc(F)c(C(=O)N5CCNC[C@@H]5C)cc4F)CC3)CC2)nc1 [Example 29-110]	6.59

Same assay, conditions: the 25th table; read-out: EC50

SMILES	pEC50
CC(C)OC(=O)N1CCC(ON=C2CCN(c3cc(F)c(/C=C/C#N)cc3F)CC2)CC1 [Example 39-2]	6.80

Same assay, conditions: the 26th table; read-out: EC50

SMILES	pEC50
CC(C)OC(=O)N1CCC(ON=C2CCN(c3ncc(S(C)(=O)=O)cn3)CC2)CC1 [Example 46-4]	6.80
CC(C)OC(=O)N1CCC(ON=C2CCN(c3cc(F)c(S(C)(=O)=O)cc3F)CC2)CC1 [Example 46-2]	7.55

Same assay, conditions: the 27th table; read-out: EC50

SMILES	pEC50
[2H]C([2H])(O)c1cc(F)c(N2CCC(=NOC3CCN(C(=O)OC(C)C)CC3)CC2)cc1F [Example 48-2]	7.74

Same assay, conditions: the 30th table; read-out: EC50

SMILES	pEC50
CC(C)OC(=O)N1CCC(ON=C2CCN(c3ncc(Cn4ccnn4)cc3F)CC2)CC1 [Example 54-2]	5.98

Same assay, conditions: the 32nd table; read-out: EC50

SMILES	pEC50
CS(=O)(=O)c1ccc(N2CCC(=NOC3CCN(c4ccc(S(C)(=O)=O)cc4F)CC3)CC2)c(F)c1 [Example 63-22]	6.40
Cc1csc(N2CCC(ON=C3CCN(c4ccc(S(C)(=O)=O)cc4F)CC3)CC2)n1 [Example 63-17]	< 5.00

Same assay, conditions: the 33rd table; read-out: EC50

SMILES	pEC50
CS(=O)(=O)c1ccc(N2CCC(=NOC3CCN(C(=O)OCCC4CC4)CC3)CC2)c(F)c1 [Example 64-39]	6.90
CC(CN(C)C)OC(=O)N1CCC(ON=C2CCN(c3ccc(S(C)(=O)=O)cc3F)CC2)CC1 (stereo not shown) [Example 64-14]	< 5.00
COC(=O)C(C)(C)COC(=O)N1CCC(ON=C2CCN(c3ccc(S(C)(=O)=O)cc3F)CC2)CC1 [Example 64-30]	6.56
CN1CCCC(OC(=O)N2CCC(ON=C3CCN(c4ccc(S(C)(=O)=O)cc4F)CC3)CC2)C1 (stereo not shown) [Example 64-19]	< 5.00
Cc1ncccc1COC(=O)N1CCC(ON=C2CCN(c3ccc(S(C)(=O)=O)cc3F)CC2)CC1 [Example 64-26]	< 5.00
CS(=O)(=O)c1ccc(N2CCC(=NOC3CCN(C(=O)OCCC4CCCCC4)CC3)CC2)c(F)c1 [Example 64-42]	6.46
CN(C)CCCCOC(=O)N1CCC(ON=C2CCN(c3ccc(S(C)(=O)=O)cc3F)CC2)CC1 [Example 64-21]	< 5.00
COC(=O)CC(C)OC(=O)N1CCC(ON=C2CCN(c3ccc(S(C)(=O)=O)cc3F)CC2)CC1 (stereo not shown) [Example 64-22]	6.71

Same assay, conditions: the 34th table, compounds 65-1 to 65-24; read-out: EC50

SMILES	pEC50
CS(=O)(=O)c1ccc(N2CCC(=NOC3CCN(C(=S)NC4CCCCC4)CC3)CC2)c(F)c1 [Example 65-9]	5.75
CS(=O)(=O)c1ccc(N2CCC(=NOC3CCN(CC(=O)Oc4ccccc4)CC3)CC2)c(F)c1 [Example 65-6]	6.07

Same assay, conditions: the 35th table, compounds 65-25 to 65-36; read-out: EC50

SMILES	pEC50
CS(=O)(=O)c1cc(F)c(N2CCC(=NOC3CCN(C(=O)Cc4ccccc4)CC3)CC2)cc1F [Example 65-28]	6.62

Same assay, conditions: the 36th table, compounds 66-1 to 66-51; read-out: EC50

SMILES	pEC50
Cn1cc(Cl)c(CN2CCC(ON=C3CCN(c4ccc(S(C)(=O)=O)cc4F)CC3)CC2)n1 [Example 66-5]	< 5.00
Cc1nc[nH]c1CN1CCC(ON=C2CCN(c3ccc(S(C)(=O)=O)cc3F)CC2)CC1 [Example 66-9]	< 5.00
CS(=O)(=O)c1ccc(N2CCC(=NOC3CCN(Cc4ccc(Cl)cc4)CC3)CC2)c(F)c1 [Example 66-28]	6.44
CC(C)Oc1ccc(CN2CCC(ON=C3CCN(c4ccc(S(C)(=O)=O)cc4F)CC3)CC2)cc1 [Example 66-40]	6.48
CS(=O)(=O)c1ccc(N2CCC(=NOC3CCN(Cc4ccccn4)CC3)CC2)c(F)c1 [Example 66-3]	< 5.00

Same assay, conditions: the 37th table, compounds 66-52 to 66-64; read-out: EC50

SMILES	pEC50
CCCCc1ccc(CN2CCC(ON=C3CCN(c4cc(F)c(S(C)(=O)=O)cc4F)CC3)CC2)cc1 [Example 66-57]	7.54
C/C=C/c1ccc(CN2CCC(ON=C3CCN(c4cc(F)c(S(C)(=O)=O)cc4F)CC3)CC2)c(F)c1 [Example 66-62]	6.87
CS(=O)(=O)c1cc(F)c(N2CCC(=NOC3CCN(Cc4ccc(-c5ccccn5)cc4)CC3)CC2)cc1F [Example 66-52]	6.03

Same assay, conditions: the 38th table, compounds 66-65 to 66-72; read-out: EC50

SMILES	pEC50
CNC(=O)c1cc(F)c(N2CCC(=NOC3CCN(Cc4ccc(-c5cncnc5)cc4)CC3)CC2)cc1F [Example 66-69]	5.65

Same assay, conditions: the 43rd table, compounds 75-1 to 75-38; read-out: EC50

SMILES	pEC50
CC(C)OC(=O)N1CCC(ON=C2CCN(c3cc(F)c(CC(=O)N4CC[C@H](CN)C4)cc3F)CC2)CC1 [Example 75-15]	7.54
CC(C)OC(=O)N1CCC(ON=C2CCN(c3cc(F)c(CC(=O)NC4CCCNC4)cc3F)CC2)CC1 (stereo not shown) [Example 75-16]	6.91
CC(C)OC(=O)N1CCC(ON=C2CCN(c3cc(F)c(CC(=O)N4CCCC(CN)C4)cc3F)CC2)CC1 (stereo not shown) [Example 75-22]	6.97

Same assay, conditions: the 44th table, compounds 77-1 to 77-14; read-out: EC50

SMILES	pEC50
CCc1cnc(N2CCC(ON=C3CCN(c4cc(F)c(CC(=O)NC5CCN(C)CC5)cc4F)CC3)CC2)nc1 [Example 77-1, 2-(4-{4-[1-(5-ethyl-pyrimidin-2-yl)-piperidin-4-yloxyimino]-piperidin-1-yl}-2,5-difluoro-phenyl)-N-(1-methyl-piperidin-4-yl)-acetamide]	7.12
